Where only a bound is given, the exact number is not on record here.

For this test, the system named is Human Monocytic Leukemia MV4-11. In words: Cell proliferation experiment (Alarm blue, 72 h, EC50). It is filed as cell-based. As to conditions: Homo sapiens, MV4-11, MV4;11 cells. The protocol: (2.1) Cell Proliferation Experiment:
Reagents: RPMI-1640 medium, McCoy's 5A medium, IMDM medium, MEM medium, L-15 medium, fetal bovine serum, Penicillin-Streptomycin double antibody, trypsin, etc., 2-mercaptoethanol, NEAA, pyruvate, etc.
The cells were cultured in conventional ways, and the cells should be passed at least for at least 2 generations before plating. Cells at the logarithmic growth phase are collected, prepared into single cell suspensions and counted. The concentration of cells was adjusted to the desired concentration, and cells were inoculated into a 96-well cell culture plate at 100 μl per well. 100 μL of complete medium of the test compound were added to each well, set up 2 duplicates for each concentration, and diluted with a 5-fold gradient, and continue to culture for 72 h. All cells were subjected to EC50 test for corresponding samples.
The fluorescence intensity of each well was detected using the Alarm blue method, and EC50 was calculated.
EC50 was calculated according to the following formula:
Y=Max+(Min−Max)/[1+(X/EC50)×Slope]
wherein Min, Max and Slope represent the minimum, maximum and slope respectively.
`CC[C@@H]1C(=O)N(C)c2cnc(Nc3ccc(C(=O)NCCCNCCOCC(=O)Nc4cccc5c4CN(C4CCC(=O)NC4=O)C5=O)cc3OC)nc2N1C1CCCC1` (some centres unmarked) [UB-180698] displayed a concentration giving a half-maximal response (EC50) of 0.01 to 0.1 µM. As to `Cc1ncsc1-c1ccc(CNC(=O)[C@@H]2C[C@@H](O)CN2C(=O)[C@@H](NC(=O)CNCCOCCOCCOCCNC(=O)c2ccc(Nc3ncc4c(n3)-c3ccc(Cl)cc3C(c3c(F)cccc3F)=NC4)cc2)C(C)(C)C)cc1` [UB-180781], the EC50 was in the range of 0.1 to 1 µM. With `O=C1CCC(N2Cc3c(NC(=O)COCCNCCN4CCC(NC(=O)c5ccc(Nc6ncc7c(n6)-c6ccc(Cl)cc6C(c6c(F)cccc6F)=NC7)cc5)CC4)cccc3C2=O)C(=O)N1` (centres unmarked) [UB-180740], the 50% effective concentration (EC50) was in the range of 0.1 to 1 µM. As to `Cc1ncsc1-c1ccc(CNC(=O)[C@@H]2C[C@@H](O)CN2C(=O)[C@@H](NC(=O)COCCOCCNC(=O)c2ccc(Nc3ncc4c(n3)-c3ccc(Cl)cc3C(c3c(F)cccc3F)=NC4)cc2)C(C)(C)C)cc1` [UB-180533], the EC50 is 0.1 to 1 µM.

`CC[C@@H]1C(=O)N(C)c2cnc(Nc3ccc(C(=O)NC4CCN(CCOCCN(CC(=O)Nc5cccc6c5CN(C5CCC(=O)NC5=O)C6=O)C(C)=O)CC4)cc3OC)nc2N1C1CCCC1` (some centres unmarked) [UB-180835]: the half-maximal effective concentration (EC50) lay within 0.01 to 0.1 µM.

As to `CC[C@@H]1C(=O)N(C)c2cnc(Nc3ccc(C(=O)NC4(C(=O)Nc5cccc6c5CN(C5CCC(=O)NC5=O)C6=O)CC4)cc3OC)nc2N1C1CCCC1` (some centres unmarked) [UB-180571], the EC50 lay in the range of 0.1 to 1 µM. `Cc1ncsc1-c1ccc(CNC(=O)[C@@H]2C[C@@H](O)CN2C(=O)[C@@H](NC(=O)COCCCNC(=O)[C@]2(Cc3cccc(Nc4nccs4)n3)CC[C@@H](Oc3cccc(Cl)c3F)CC2)C(C)(C)C)cc1` [UB-180585] had an EC50 of over 1 µM.

Molecule `O=C1CCC(N2Cc3c(NC(=O)COCCOCCOCCNCCOCCNC(=O)c4ccc(Nc5ncc6c(n5)-c5ccc(Cl)cc5C(c5c(F)cccc5F)=NC6)cc4)cccc3C2=O)C(=O)N1` (centres unmarked) [UB-180798] yielded an EC50 of 0.1 to 1 µM. As for `Cc1ncsc1-c1ccc(CNC(=O)[C@@H]2C[C@@H](O)CN2C(=O)[C@@H](NC(=O)CCNCCOCCn2cc(CNC(=O)[C@]3(Cc4cccc(Nc5nccs5)n4)CC[C@@H](Oc4cccc(Cl)c4F)CC3)nn2)C(C)(C)C)cc1` [UB-180785], the figure is over 1 µM; as for `CC[C@@H]1C(=O)N(C)c2cnc(Nc3ccc(C(=O)NC4CCN(CCNCCCC(=O)Nc5cccc6c5CN(C5CCC(=O)NC5=O)C6=O)CC4)cc3OC)nc2N1C1CCCC1` (some centres unmarked) [UB-180687], 0.01 to 0.1 µM; as for `O=C1CCC(N2Cc3c(NC(=O)CCNCCOCCOCCOCCOCCNC(=O)c4ccc(Nc5ncc6c(n5)-c5ccc(Cl)cc5C(c5c(F)cccc5F)=NC6)cc4)cccc3C2=O)C(=O)N1` (centres unmarked) [UB-180807], 0.1 to 1 µM.

For the molecule `Cc1ncsc1-c1ccc(CNC(=O)[C@@H]2C[C@@H](O)CN2C(=O)[C@@H](NC(=O)CCOCCOCCOCCNC(=O)[C@]2(Cc3cccc(Nc4nccs4)n3)CC[C@@H](Oc3cccc(Cl)c3F)CC2)C(C)(C)C)cc1` [UB-180612], the EC50 fell in the range of 0.1 to 1 µM. In turn, `COc1cc(C(=O)NCCCNCCCC(=O)Nc2cccc3c2CN(C2CCC(=O)NC2=O)C3=O)ccc1Nc1ncc2c(n1)N(Cc1ccc(Br)cc1)CC(C)(C)C(=O)N2C` (centres unmarked) [UB-180677] had an EC50 of 0.1 to 1 µM.

As to `CC[C@@H]1C(=O)N(C)c2cnc(Nc3ccc(C(=O)NCCOCCOCCOCCNCC(=O)Nc4cccc5c4CN(C4CCC(=O)NC4=O)C5=O)cc3OC)nc2N1Cc1ccc(Br)cc1` (some centres unmarked) [UB-180664], the EC50 was 0.01 to 0.1 µM. The molecule `Cc1ncsc1-c1ccc(CNC(=O)[C@@H]2C[C@@H](O)CN2C(=O)[C@@H](NC(=O)CCCNC(=O)[C@]2(Cc3cccc(Nc4nccs4)n3)CC[C@@H](Oc3cccc(Cl)c3F)CC2)C(C)(C)C)cc1` [UB-180583] had an EC50 of 0.1 to 1 µM. As for `Cc1ncsc1-c1ccc(CNC(=O)[C@@H]2C[C@@H](O)CN2C(=O)[C@@H](NC(=O)COCCOCCOCCNC(=O)c2ccc(Nc3ncc4c(n3)-c3ccc(Cl)cc3C(c3c(F)cccc3F)=NC4)cc2)C(C)(C)C)cc1` [UB-180514], the 50% effective concentration (EC50) fell in the range of 0.01 to 0.1 µM. Molecule `CC[C@@H]1C(=O)N(C)c2cnc(Nc3ccc(C(=O)NCc4cn(CCNCCOCC(=O)Nc5cccc6c5CN(C5CCC(=O)NC5=O)C6=O)nn4)cc3OC)nc2N1Cc1ccc(C)s1` (some centres unmarked) [UB-180764] displayed an EC50 of under 0.01 µM.

These data come from patent US20210369853A1, “TARGETED PROTEASE DEGRADATION PLATFORM” (EUBULUS BIOTHERAPEUTICS INC., priority 2018, published 2021).
